Converted amounts (≈) assume the structure as drawn. “And” between values parts separate entries of the source, which are not always exact repeats. Equal values may be shown once. Read-outs that look alike come from different tables or passages of the source. Where a SMILES comes first, the peptide text is derived from it. Where no end group is shown, it is not given here. [ ]: non-standard residue; d: D form. 1Nal = N[C@@H](Cc1cccc2ccccc12)C(=O)O; Aib = CC(C)(N)C(=O)O
How the values were obtained:
[1] = test system: Pseudomonas aeruginosa (PA); assay: Broth microdilution anti-bacterial assay (CLSI), Pseudomonas aeruginosa; assay type: cell-based, Pseudomonas aeruginosa (ATCC 14213); settings: for anti-bacterial activity (in words): PA and SA
Experimental: (§1) To evaluate their anti-bacterial potency, broth microdilution method as per the CLSI guidelines 1 was used. […] The anti-bacterial potency of the tested agents is quantified using minimum inhibitory concentration (MIC) and minimum bactericidal concentration (MBC). […] To obtain the MBC data, 1X, 2X and 4× MIC of the peptide variants were plated to obtain the number of viable colonies compared to the original inoculum.
(§2) Pseudomonas aeruginosa (ATCC 14213, PA), and methicillin resistant Staphylococcus aureus (BAA1717-USA 300, SA) were obtained from The American Type Culture Collection (ATCC).
(§3) Examination of the potency of modified short peptides against PA and SA strains was performed by using the broth microdilution protocol from the Clinical and Laboratory Standards Institute (CLSI) guidelines (CLSI 2012) as described. Briefly, five freshly plated bacteria colonies were grown in cation adjusted MH2 broth (BD Biosciences) in a shaker incubator at 37° C., 220 RPM. Cells were grown to an optical density (OD600) of ~0.2 measured using a Microplate Spectrophotometer (Molecular Devices Spectra Max Plus). 100 μL of microbial culture containing ~5×10^5 CFU/mL of bacteria in the respective broths were introduced into each well containing 100 μL of peptides and incubated overnight at 37° C. Next, to check the bactericidal effects, 100 μL from each well was transferred and spread on sterile MH2 agar plates. The plates were incubated overnight at 37° C. and the number of colonies forming units (CFU) were calculated the following day. Readings of bacteria grown in media without any treatments were normalized to 100% as media control. For the mixed infection study, three freshly plated bacteria colonies each from PA, SA and ST plates were grown together in cation adjusted MH2 broth and proceeded as described above.

[2] = test system: Staphylococcus aureus (SA); assay: Broth microdilution anti-bacterial assay (CLSI), Staphylococcus aureus; assay type: cell-based
Experimental: as §1, §2, §3

[3] = test system: Pseudomonas aeruginosa (PA); assay: Combination of peptide with antibiotics against PA; assay type: cell-based; settings: with colistin
Excerpt: In view of the results above, the peptide variants as described herein show synergistic anti-bacterial effects when used in combination with antibiotics.
In some examples, the methods described herein further comprises administering an antibiotic agent to the subject.

[4] = test system: mixed bacterial infection (PA, SA and ST); assay: Broth microdilution, mixed bacterial infection; assay type: cell-based
Experimental: Chronic wounds mostly present mixed infections where numerous pathogens colonize together.
as §3

[5] = test system: Pseudomonas aeruginosa (PA); assay: Antimicrobial resistance evolution assay, PA; assay type: cell-based; settings: for development of antimicrobial resistance, PA: serial passaging, 28 days, resistance = >4-fold MIC change
Excerpt: The development of antimicrobial resistance is defined by greater than a 4-fold change to their initial minimum inhibitory concentration (MIC) at day 1. Exemplary bacteria strains Pseudomonas aeruginosa (PA) and Staphylococcus aureus (SA) are subjected to continuous daily serial passaging over several days, with treatment of exemplary variant peptides E1AM2 (SEQ ID NO: 2) and Q19L (SEQ ID NO: […]) at subinhibitory concentrations. […] The treatments were discontinued when the MIC increased by more than four-fold from the initial MIC or when MIC reached >100 μM.
Briefly, sequential passaging of PA, and SA cells was done with sub-inhibitory concentrations of antibiotics or E1AM2 up to 4 weeks. The cells grown in those concentrations of antibiotics or peptides were diluted to A600 nm (OD600) of ~0.2 and serially passaged daily with the same concentrations at 37° C. with agitation at 24 h intervals.

[6] = test system: Pseudomonas aeruginosa PA BAA-2110; assay: Broth microdilution, PA BAA-2110 (lung infection in cystic fibrosis); assay type: cell-based, Pseudomonas aeruginosa (BAA-2110); settings: Pseudomonas aeruginosa, BAA2110
Experimental: (§4) Bacteria strains involved in lung infection in cystic fibrosis patients (PA-BAA 2110) and ear-eye infections (PA-CRM 9027) are treated with exemplary variant peptides, such as E1AM2 and Q19L.
as §3

[7] = test system: Pseudomonas aeruginosa PA CRM-9027; assay: Broth microdilution, PA CRM-9027 (ear-eye infections); assay type: cell-based, Pseudomonas aeruginosa (CRM-9027); settings: Pseudomonas aeruginosa, PACRM9027
Experimental: as §4, §3

[8] = PA, overnight, 37° C., ≥99% inhibition
[9] = SA, overnight, 37° C., ≥99% inhibition

Row | Compound | MIC [1, 8] | MBC ([1]; PA, ≥99% killing) | MIC [2, 9] | MBC ([2]; SA, ≥99% killing) | MBC ([4]; mixed infection) | development of antimicrobial resistance, PA [5] | other results
1 | CC(C)C[C@@H](NC(=O)[C@@H](C)NC(=O)[C@@H](CC(C)C)NC(=O)[C@@H](CCCCN)NC(=O)[C@@H](CC(C)C)NC(=O)[C@@H](C)NC(=O)[C@@H](CCCCN)NC(=O)[C@@H](CCCCN)NC(=O)[C@@H](CO)NC(=O)[C@@H](CC(C)C)NC(=O)[C@@H](CCCCN)NC(=O)[C@@H](CC(C)C)NC(=O)[C@@H](Cc1c[nH]c2ccccc12)NC(=O)[C@@H](CCCCN)NC(=O)[C@@H](CCCCN)NC(=O)[C@@H](CC(C)C)NC(=O)[C@@H](CC(C)C)NC(=O)[C@@H](CCCCN)NC(=O)[C@H](N)CCCCN)C(N)=O [E1AM2 D-V8L Q19L C-2-NH2] (H-[dK][dK][dL][dL][dK][dK][dW][dL][dK][dL][dS][dK][dK][dA][dL][dK][dL][dA][dL]-NH2) | 1.56 µM (≈ 3.51 µg/mL) | 1.56 µM (≈ 3.51 µg/mL) | 1.56 µM (≈ 3.51 µg/mL) | 1.56 µM (≈ 3.51 µg/mL) |  |  | MBC in combination with colistin [3]: reduced minimum bactericidal concentration (MBC); MIC in combination with colistin [3]: reduced minimum inhibitory concentration (MIC)
2 | O=C(O)c1cn(C2CC2)c2cc(N3CCNCC3)c(F)cc2c1=O [Ciprofloxacin, 1-cyclopropyl-6-fluoro-4-oxo-7-(piperazin-1-yl)-quinoline-3-carboxylic acid] |  |  |  |  | 25 µM (≈ 8.28 µg/mL) | developed resistance | 
3 | CN[C@@H]1[C@@H](O)C(O[C@@H]2[C@@H](O)[C@H](O[C@H]3O[C@H]([C@@H](C)NC)CC[C@H]3N)[C@@H](N)C[C@H]2N)OC[C@]1(C)O (stereo partly drawn) [Gentamicin, (3R,4R,5R)-2-{[(1S,2S,3R,4S,6R)-4,6-diamino-3-{[(2R,3R,6S)-3-amino-6-[(1R)-1-(methylamino)ethyl]oxan-2-yl]oxy}-2-hydroxycyclohexyl]oxy}-5-methyl-4-(methylamino) oxane-3,5-diol] |  |  |  |  | 6.25 µM and 6.26 µM | developed resistance | MBC ([1]; Pseudomonas aeruginosa): 6.25 µM (≈ 2.99 µg/mL); MIC ([1]; Pseudomonas aeruginosa): 3.12 µM (≈ 1.49 µg/mL); MBC ([2]; Staphylococcus aureus): 3.25 µM (≈ 1.55 µg/mL); MIC ([2]; Staphylococcus aureus): 1.56 µM (≈ 0.745 µg/mL); MIC [4]: 3.12 µM (≈ 1.49 µg/mL); MBC [6]: 25 µM (≈ 11.9 µg/mL); MIC [6]: 25 µM (≈ 11.9 µg/mL); AMR prevention / resistance induction ([5]; Table 15: in PA and SA, bacteria not named): induced resistance development in bacteria; MBC [7]: 12.5 µM (≈ 5.97 µg/mL); MIC [7]: 6.25 µM (≈ 2.99 µg/mL)
4 | KKLLKKWVKLSKKALKLAQSL-NH2 [E1AM2-NH2] | 3.125 µM | 6.25 µM | 6.25 µM | 12.5 µM | 6.25 µM |  | MIC ([4]; mixed infection): 6.25 µM
5 | CO/N=C(\C(=O)N[C@@H]1C(=O)N2C(C(=O)[O-])=C(C[N+]3(C)CCCC3)CS[C@H]12)c1csc(N)n1 [Cefepime] |  |  |  |  | 12.5 µM (≈ 6.01 µg/mL) | developed resistance | MBC ([1]; Pseudomonas aeruginosa): 25 µM (≈ 12 µg/mL); MIC ([1]; Pseudomonas aeruginosa): 12.5 µM (≈ 6.01 µg/mL); MBC ([2]; Staphylococcus aureus): 25 µM (≈ 12 µg/mL); MIC ([2]; Staphylococcus aureus): 12.5 µM (≈ 6.01 µg/mL); MIC [4]: 12.5 µM (≈ 6.01 µg/mL); MBC [6]: 25 µM (≈ 12 µg/mL); MIC [6]: 12.5 µM (≈ 6.01 µg/mL); MBC [7]: 1.56 µM (≈ 0.75 µg/mL); MIC [7]: 1.56 µM (≈ 0.75 µg/mL)
6 | CCN1CCN(C(=O)N[C@@H](C(=O)N[C@@H]2C(=O)N3[C@@H]2SC(C)(C)[C@@H]3C(=O)O)c2ccccc2)C(=O)C1=O [Piperacillin, (2S,5R,6R)-6-{[(2R)-2-[(4-ethyl-2,3-dioxo-piperazine-1-carbonyl)amino]-2-phenyl-acetyl]amino}-3,3-dimethyl-7-oxo-4-thia-1-azabicyclo[3.2.0]heptane-2-carboxylic acid] |  |  |  |  | 25 µM (≈ 12.9 µg/mL) | developed resistance | MBC ([1]; Pseudomonas aeruginosa): 50 µM (≈ 25.9 µg/mL); MIC ([1]; Pseudomonas aeruginosa): 25 µM (≈ 12.9 µg/mL); MBC ([2]; Staphylococcus aureus): 12.5 µM (≈ 6.47 µg/mL); MIC ([2]; Staphylococcus aureus): 6.25 µM (≈ 3.23 µg/mL); MIC [4]: 25 µM (≈ 12.9 µg/mL); MBC [6]: 25 µM (≈ 12.9 µg/mL); MIC [6]: 12.5 µM (≈ 6.47 µg/mL); MBC [7]: 6.25 µM (≈ 3.23 µg/mL); MIC [7]: 6.25 µM (≈ 3.23 µg/mL)
7 | CC(C)C[C@H](NC(=O)[C@H](CO)NC(=O)[C@H](CC(C)C)NC(=O)[C@H](C)NC(=O)[C@H](CC(C)C)NC(=O)[C@H](CCCCN)NC(=O)[C@H](CC(C)C)NC(=O)C(C)(C)NC(=O)[C@H](CCCCN)NC(=O)[C@H](CCCCN)NC(=O)[C@H](CO)NC(=O)[C@H](CC(C)C)NC(=O)[C@H](CCCCN)NC(=O)[C@H](CC(C)C)NC(=O)[C@H](Cc1c[nH]c2ccccc12)NC(=O)[C@H](CCCCN)NC(=O)[C@H](CCCCN)NC(=O)[C@H](CC(C)C)NC(=O)[C@H](CC(C)C)NC(=O)[C@H](CCCCN)NC(=O)[C@@H](N)CCCCN)C(N)=O [V8LQ19LA14Aib] (H-KKLLKKWLKLSKK[Aib]LKLALSL-NH2) | 3.126 µM (≈ 7.7 µg/mL) | 6.25 µM (≈ 15.4 µg/mL) | 3.125 µM (≈ 7.7 µg/mL) | 6.25 µM (≈ 15.4 µg/mL) |  |  | 
8 | KKLLKKLVKLSKKALKLAQSL-NH2 [W7L] | 3.125 µM | 3.125 µM | 6.25 µM | 6.25 µM |  |  | anti-bacterial activity (in words) [1]: reduced MIC against PA
9 | KKLLKKWVKLLKKALKLAQSL-NH2 [S11L] | 12.5 µM | 12.5 µM | 6.25 µM | 6.25 µM |  |  | 
10 | KKLLKKWLKLSKKALKLA-NH2 [V8LQ19L C-3] | >6.25 µM | >6.25 µM | >6.25 µM | >8.26 µM |  |  | anti-bacterial activity (in words) [1]: strong potency
11 | CC(C)C[C@H](NC(=O)[C@H](CO)NC(=O)[C@H](CC(C)C)NC(=O)[C@H](C)NC(=O)[C@H](CC(C)C)NC(=O)[C@H](CCCCN)NC(=O)[C@H](CC(C)C)NC(=O)[C@H](C)NC(=O)[C@H](CCCCN)NC(=O)[C@H](CCCCN)NC(=O)[C@H](CO)NC(=O)[C@H](CC(C)C)NC(=O)[C@H](CCCCN)NC(=O)[C@H](CC(C)C)NC(=O)[C@H](Cc1cccc2ccccc12)NC(=O)[C@H](CCCCN)NC(=O)[C@H](CCCCN)NC(=O)[C@H](CC(C)C)NC(=O)[C@H](CC(C)C)NC(=O)[C@H](CCCCN)NC(=O)[C@@H](N)CCCCN)C(N)=O [W71NalV8LQ19L] (H-KKLLKK[1Nal]LKLSKKALKLALSL-NH2) | 3.125 µM (≈ 7.69 µg/mL) | 3.125 µM (≈ 7.69 µg/mL) | 1.56 µM (≈ 3.84 µg/mL) | 1.56 µM (≈ 3.84 µg/mL) |  |  | 

Source: patent US20260327263A1, “Anti-Bacterial Peptides” (priority 2023, published 2026)
